Reference: article PMC6516726 (ACS Catalysis, 2018)
Like-named read-outs stand apart in the source and are kept apart here.

What was measured:
[1] = target: L25A PETNR (Enterobacter cloacae, UniProt P71278, L26A); conditions: for kobs1 / A2 (amplitude of kobs2 out of total absorbance change) / kobs2: 10 mM NADPH or 25 mM NADH, pH 7.0
[2] = target: L25I PETNR (Enterobacter cloacae, UniProt P71278, L26I); conditions: for kobs1: 10 mM NADPH or 25 mM NADH, pH 7.0
[3] = target: WT PETNR (Enterobacter cloacae, UniProt P71278); assay: Stopped-flow FMN reduction (reductive half-reaction, hydride transfer) of WT PETNR by coenzyme; conditions: for kobs1: 10 mM NADPH or 25 mM NADH, pH 7.0
WT PETNR, sequence (P71278 entry or part of it): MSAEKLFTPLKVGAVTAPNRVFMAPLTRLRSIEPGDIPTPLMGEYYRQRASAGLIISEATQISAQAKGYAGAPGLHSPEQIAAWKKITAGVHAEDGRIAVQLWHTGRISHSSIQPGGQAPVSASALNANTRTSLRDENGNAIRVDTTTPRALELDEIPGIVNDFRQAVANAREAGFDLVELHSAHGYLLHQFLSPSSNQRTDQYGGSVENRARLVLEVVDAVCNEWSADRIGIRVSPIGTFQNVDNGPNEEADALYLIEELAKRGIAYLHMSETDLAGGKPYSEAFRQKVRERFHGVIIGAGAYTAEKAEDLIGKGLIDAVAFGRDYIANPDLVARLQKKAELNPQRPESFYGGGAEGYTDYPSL

[4] = T0 = 298 K, fit of kobs1 (5–40 °C) to eq 1
[5] = deuterated minus protiated coenzyme, T0 = 298 K

L25A PETNR, sequence (P71278 entry or part of it L26A): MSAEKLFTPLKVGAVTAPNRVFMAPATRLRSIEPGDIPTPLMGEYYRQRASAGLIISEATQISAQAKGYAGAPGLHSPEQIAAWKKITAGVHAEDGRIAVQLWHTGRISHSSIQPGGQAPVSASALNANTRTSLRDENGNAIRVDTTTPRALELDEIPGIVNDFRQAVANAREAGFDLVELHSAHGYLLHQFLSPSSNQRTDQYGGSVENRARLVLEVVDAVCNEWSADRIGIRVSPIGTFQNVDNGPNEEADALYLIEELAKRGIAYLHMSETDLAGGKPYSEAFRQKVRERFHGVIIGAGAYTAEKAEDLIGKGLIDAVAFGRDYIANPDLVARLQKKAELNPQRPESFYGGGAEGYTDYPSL
L25I PETNR, sequence (P71278 entry or part of it L26I): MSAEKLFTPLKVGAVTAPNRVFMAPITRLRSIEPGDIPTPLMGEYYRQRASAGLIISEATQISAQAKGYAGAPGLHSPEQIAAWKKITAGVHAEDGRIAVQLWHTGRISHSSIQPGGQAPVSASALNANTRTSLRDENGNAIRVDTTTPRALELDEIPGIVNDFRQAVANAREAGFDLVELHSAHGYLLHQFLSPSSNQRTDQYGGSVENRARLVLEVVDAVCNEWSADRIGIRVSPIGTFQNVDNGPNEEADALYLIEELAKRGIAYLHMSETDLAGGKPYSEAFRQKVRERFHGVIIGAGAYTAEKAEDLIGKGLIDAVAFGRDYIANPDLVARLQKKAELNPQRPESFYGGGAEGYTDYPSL

[2H][C@@H]1C=CN([C@@H]2O[C@H](COP(=O)(O)OP(=O)(O)OC[C@H]3O[C@@H](n4cnc5c(N)ncnc54)[C@H](O)[C@@H]3O)[C@@H](O)[C@H]2O)C=C1C(N)=O [(R)-[4-^2H]-NADH]
kobs1 ([1]; 5 °C): 0.162 ± 0.002 s⁻¹
kobs1 ([1]; 10 °C): 0.211 ± 0.002 s⁻¹
kobs1 ([1]; 15 °C): 0.275 ± 0.004 s⁻¹
kobs1 ([1]; 20 °C): 0.360 ± 0.004 s⁻¹
kobs1 ([1]; 25 °C): 0.495 ± 0.002 s⁻¹
kobs1 ([1]; 30 °C): 0.612 ± 0.042 s⁻¹
A2 (amplitude of kobs2 out of total absorbance change) ([1]; 35 °C): 15.60 ± 2.69%
kobs1 ([1]; 35 °C): 0.885 ± 0.018 s⁻¹
kobs2 ([1]; 35 °C): 0.11 ± 0.03 s⁻¹
A2 (amplitude of kobs2 out of total absorbance change) ([1]; 40 °C): 34.60 ± 0.91%
kobs1 ([1]; 40 °C): 1.070 ± 0.054 s⁻¹
kobs2 ([1]; 40 °C): 0.17 ± 0.01 s⁻¹
ΔCp^⧧ [1, 4]: 0.42 ± 0.14 kJ mol^–1 K^–1
ΔHT0^⧧ [1, 4]: 40.3 ± 1.1 kJ mol^–1
ΔST0^⧧ [1, 4]: –115.7 ± 3.8 J mol^–1 K^–1
Isotope Effect on ΔCp^⧧ [1, 5]: 0.13 ± 0.15 kJ mol^–1 K^–1
Isotope Effect on ΔHT0^⧧ [1, 5]: 6.6 ± 1.2 kJ mol^–1
Isotope Effect on ΔST0^⧧ [1, 5]: 6.4 ± 4.2 J mol^–1 K^–1
kobs1 ([2]; 5 °C): 0.062 ± 0.001 s⁻¹
kobs1 ([2]; 10 °C): 0.083 ± 0.001 s⁻¹
kobs1 ([2]; 20 °C): 0.160 ± 0.001 s⁻¹
kobs1 ([2]; 25 °C): 0.223 ± 0.003 s⁻¹
kobs1 ([2]; 30 °C): 0.306 ± 0.005 s⁻¹
kobs1 ([2]; 35 °C): 0.418 ± 0.001 s⁻¹
kobs1 ([2]; 40 °C): 0.604 ± 0.066 s⁻¹
ΔCp^⧧ [2, 4]: 0.30 ± 0.07 kJ mol^–1 K^–1
ΔHT0^⧧ [2, 4]: 44.9 ± 0.2 kJ mol^–1
ΔST0^⧧ [2, 4]: –106.8 ± 0.8 J mol^–1 K^–1
Isotope Effect on ΔCp^⧧ [2, 5]: –0.03 ± 0.19 kJ mol^–1 K^–1
Isotope Effect on ΔHT0^⧧ [2, 5]: 2.3 ± 1.8 kJ mol^–1
Isotope Effect on ΔST0^⧧ [2, 5]: –9.2 ± 6.0 J mol^–1 K^–1
kobs1 ([3]; 5 °C): 0.091 ± 0.001 s⁻¹
kobs1 ([3]; 15 °C): 0.156 ± 0.001 s⁻¹
kobs1 ([3]; 20 °C): 0.204 ± 0.002 s⁻¹
kobs1 ([3]; 25 °C): 0.274 ± 0.001 s⁻¹
kobs1 ([3]; 30 °C): 0.366 ± 0.002 s⁻¹
kobs1 ([3]; 35 °C): 0.499 ± 0.011 s⁻¹
kobs1 ([3]; 40 °C): 0.673 ± 0.005 s⁻¹
ΔCp^⧧ [3, 4]: 0.46 ± 0.02 kJ mol^–1 K^–1
ΔHT0^⧧ [3, 4]: 40.3 ± 0.1 kJ mol^–1
ΔST0^⧧ [3, 4]: –120.4 ± 0.5 J mol^–1 K^–1
Isotope Effect on ΔCp^⧧ [3, 5]: 0.07 ± 0.04 kJ mol^–1 K^–1
Isotope Effect on ΔHT0^⧧ (ΔΔHT0^⧧) [3, 5]: 4.9 ± 0.2 kJ mol^–1
Isotope Effect on ΔST0^⧧ [3, 5]: 0.1 ± 0.7 J mol^–1 K^–1
